What was measured:
[1] = Solubility of compound (1) in aqueous SBE7-β-CD solution or water, HPLC of filtered supernatant; assay type: physicochemical
Procedure: To an aqueous solution of a β-cyclodextrin sulfobutyl ether sodium salt (product of CyDex; hereinafter may be abbreviated as SBE7-β-CD; molecular weight 2162.01; substitution ratio: 7/21 (about 33%)) (26, 40, or 72 mM; 2.5 ml) was added an excessive amount of 3-[2-[4-(3-chloro-2-methylphenyl)-1-piperadinyl]ethyl]-5,6-dimethoxy-1-(4-imidazolylmethyl)-1H-indazole,.2HCl.3.5H2O(hereinafter may be abbreviated as compound (1); molecular weight: 631.0) (400 mg). The mixture was allowed to stand for 7 days in a 25° C. water bath. During the standing period, the mixture was sonicated once a day for 15 minutes, followed by stirring for 2 minutes. On the first, fifth, and seventh days, pH of the mixture was adjusted to 4.0 by addition of adequate amount of HCl. After pH was adjusted on the seventh day, the amount of the entirety of the mixture was adjusted to 5 ml (to thereby achieve a SBE7-β-CD concentration of […]). Six days later, the mixture was subjected to centrifugal separation, to thereby collect a supernatant. […] Similarly, the solubility of the piperazine derivative (I) for water was also determined by HPLC.
(Conditions for High Performance Liquid Chromatography (HPLC))
Mobile phase: 50 mM phosphate buffer solution (pH 5.5)/acetonitrile (1:1)
Column temperature: 40° C.

[2] = system: red blood cells; test: Hemolysis activity with red blood cell suspension, absorbance at 588 nm; assay type: cell-based; conditions: for hemolysis activity of compound (1): 0.6 mM compound (1), more suppressed at higher cyclodextrin concentration, FIG. 1
Procedure: To 10 mM isotonic phosphate buffer solution (pH 6.0, 2 ml) containing SBE7-β-CD or hydroxypropyl-β-cyclodextrin (product of Nihon Shokuhin Kako; hereinafter may be abbreviated as HP-β-CD; molecular weight 1413; substitution ratio: 4.8/21 (about 23%)) at a different concentration and 0.6 mM compound (1) (concentration that permits complete hemolysis) was added a suspension (0.2 ml) of red blood cells suspension (5%). The mixture was maintained for 30 minutes at 37° C. After centrifugal separation (1000× g, 5 min), oxyhemoglobin and methohemoglobin contained in the supernatant were determined based on the absorbance at 588 nm, to thereby investigate the hemolysis activity of compound (1).

Concentration of compound (1) in supernatant ([1]; Compound (1) alone, solubility for water): 14600 µM
Concentration of compound (1) in supernatant ([1]; SBE7-β-CD 13 mM, 25° C., pH 4.0): 19000 µM
Concentration of compound (1) in supernatant ([1]; SBE7-β-CD 20 mM, 25° C., pH 4.0): 25600 µM
Concentration of compound (1) in supernatant ([1]; SBE7-β-CD 36 mM, 25° C., pH 4.0): 56700 µM
SMILES: COc1cc2c(CCN3CCN(c4cccc(Cl)c4C)CC3)nn(Cc3c[nH]cn3)c2cc1OC.Cl.Cl [compound (1), 3-[2-[4-(3-chloro-2-methylphenyl)-1-piperadinyl]ethyl]-5,6-dimethoxy-1-(4-imidazolylmethyl)-1H-indazole,.2HCl.3.5H2O]
concentration that permits complete hemolysis ([2]; 10 mM isotonic phosphate buffer pH 6.0, 30 minutes at 37° C.): 600 µM
hemolysis activity of compound (1) ([2]; complex formed by addition of HP-β-CD): suppressed
hemolysis activity of compound (1) ([2]; complex formed by addition of SBE7-β-CD): suppressed

From patent US6596706B1, “Piperazine-cyclodextrin complexes” (Daiichi Pharmaceutical Co., Ltd., priority 1997, dated 2003)
